Assay results: ChEMBL document CHEMBL1135890, “Structure-activity relationships of 2'-fluoro-2',3'-unsaturated D-nucleosides as anti-HIV-1 agents” (J Med Chem, 2002)
pEC50, pIC50: −log10 of the molar value.

Key:
[1] = tested on: CCRF-CEM; assay: Cytotoxicity against CEM cells; type: cell-based, Homo sapiens
[2] = tested on: Vero; assay: (§1) Cytotoxicity against Vero cells was determined.; type: cell-based; settings: Chlorocebus sabaeus
[3] = tested on: Human immunodeficiency virus 1; assay: Anti-HIV activity was determined; type: functional, organism-based
[4] = (§2) Toxicity against human peripheral blood mononuclear (PBM) cells
[5] = Anti-HIV activity against human peripheral blood mononuclear (PBM) cell lines infected with XxBRU Pitt (FTC sensitive isolate); type: functional
[6] = Anti-HIV activity against human peripheral blood mononuclear (PBM) cell lines infected with M184V Pitt (FTC resistant isolate); type: functional
[7] = as §2; type: functional
[8] = tested on: Vero; assay: as §1; type: functional, cell-based; settings: Chlorocebus sabaeus
[9] = tested on: CCRF-CEM; assay: Cytotoxicity against CEM cells was determined.; type: functional, cell-based; settings: Homo sapiens
[10] = Half life was determined.; type: ADME
[11] = Half life at pH 2.0; type: ADME; settings: buffer
[12] = human, peripheral blood mononuclear (PBM) cells, IC50

Compound: Nc1nc(F)nc2c1ncn2[C@@H]1O[C@H](CO)C=C1F
- pIC50 ([1]; Homo sapiens, CCRF-CEM): < 4.00
- pIC50 [2]: < 4.00
- pEC50 ([3]; Human immunodeficiency virus 1): < 4.00
- pIC50 [4, 12]: < 4.00

Compound: OC[C@@H]1C=C(F)[C@H](n2cnc3c(O)ncnc32)O1
- pIC50 ([1]; Homo sapiens, CCRF-CEM): < 4.00
- pIC50 [2]: 4.06
- pEC50 [5]: 5.55
- pEC50 ([3]; Human immunodeficiency virus 1): 6.00
- pEC50 [6]: 5.60
- pIC50 [4, 12]: 4.03

Compound: Nc1nc(N)c2ncn([C@@H]3O[C@H](CO)C=C3F)c2n1
- pIC50 ([1]; Homo sapiens, CCRF-CEM): < 4.00
- pIC50 [2]: < 4.00
- pEC50 ([3]; Human immunodeficiency virus 1): 5.52
- pIC50 [4, 12]: < 4.00

Compound: Nc1nc(F)nc2c1ncn2[C@H]1O[C@H](CO)C=C1F
- pIC50 ([1]; Homo sapiens, CCRF-CEM): 4.55
- pIC50 [2]: 4.79
- pEC50 ([3]; Human immunodeficiency virus 1): 5.40
- pIC50 [4, 12]: 4.39

Compound: Nc1nc(N)c2ncn([C@@H]3O[C@@H](CO)C=C3F)c2n1
- pIC50 ([1]; Homo sapiens, CCRF-CEM): < 4.00
- pIC50 [2]: < 4.00
- pEC50 ([3]; Human immunodeficiency virus 1): < 4.00
- pIC50 [4, 12]: < 4.00

Compound: OC[C@@H]1C=C(F)[C@@H](n2cnc3c(O)ncnc32)O1
- pIC50 ([1]; Homo sapiens, CCRF-CEM): < 4.00
- pIC50 [2]: < 4.00
- pEC50 ([3]; Human immunodeficiency virus 1): < 4.00
- pIC50 [4, 12]: < 4.00

Compound: Cc1cn([C@@H]2O[C@H](CO)C=C2F)c(=O)nc1N
- pIC50 ([1]; Homo sapiens, CCRF-CEM): < 4.00
- pIC50 [2]: < 4.00
- pEC50 ([3]; Human immunodeficiency virus 1): < 4.00
- pIC50 [4, 12]: < 4.00

Compound: Nc1nc(Cl)c2ncn([C@@H]3O[C@H](CO)C=C3F)c2n1 (stereo in doubt; 11)
- pIC50 ([1]; ccrf-cem): < 4.00
- pEC50 [3]: 5.37
- pIC50 [4]: 4.01

Compound: Nc1nc(Cl)c2ncn([C@@H]3O[C@H](CO)C=C3F)c2n1 (stereo in doubt; 13)
- pIC50 ([1]; ccrf-cem): 4.52
- pIC50 [2]: < 4.00
- pEC50 [3]: < 4.12
- pIC50 [4, 12]: 4.11

Compound: Nc1ncnc2c1ncn2[C@@H]1O[C@H](CO)C=C1F (stereo in doubt; 14)
- pIC50 [7]: 4.17
- pIC50 [8]: < 4.00
- pIC50 [9]: 4.24
- pEC50 [5]: 6.34
- pEC50 [3]: 6.36
- half-life [10]: 41.6 min
- half-life [11]: 72 h
- pEC50 [6]: 6.10

Compound: Nc1ncnc2c1ncn2[C@@H]1O[C@H](CO)C=C1F (stereo in doubt; 15)
- pIC50 ([1]; Homo sapiens, CCRF-CEM): < 4.00
- pIC50 [2]: < 4.00
- pEC50 [3]: < 4.00
- pIC50 [4, 12]: < 4.00

Compound: Nc1nc(O)c2ncn([C@@H]3O[C@H](CO)C=C3F)c2n1 (stereo in doubt; 18)
- pEC50 [6]: 4.95

Compound: Nc1nc(O)c2ncn([C@@H]3O[C@H](CO)C=C3F)c2n1 (stereo in doubt; 19)
- pIC50 ([1]; Homo sapiens, CCRF-CEM): < 4.00
- pIC50 [2]: < 4.00
- pEC50 [3]: 4.74
- pIC50 [4, 12]: < 4.00

Compound: Nc1ccn([C@@H]2O[C@H](CO)C=C2F)c(=O)n1 (stereo in doubt; 28)
- pIC50 ([1]; ccrf-cem): 4.45
- pEC50 [3]: 5.59
- pIC50 [4]: 5.14

Compound: Nc1ccn([C@@H]2O[C@H](CO)C=C2F)c(=O)n1 (stereo in doubt; 29)
- pIC50 ([1]; ccrf-cem): < 4.00
- pIC50 [2]: < 4.00
- pEC50 [3]: < 4.00
- pIC50 [4]: < 4.00

Compound: Nc1nc(=O)n([C@@H]2O[C@H](CO)C=C2F)cc1F (stereo in doubt; 30)
- pIC50 ([1]; Homo sapiens, CCRF-CEM): < 4.00
- pIC50 [2]: < 4.00
- pEC50 [5]: 5.51
- pEC50 [3]: 6.09
- pEC50 [6]: 5.02
- pIC50 [4, 12]: < 4.00

Compound: Nc1nc(=O)n([C@@H]2O[C@H](CO)C=C2F)cc1F (stereo in doubt; 31)
- pEC50 [3]: < 4.00

Compound: Nc1ncnc2c1ncn2[C@@H]1O[C@H](CO)[C@@H](O)[C@H]1O [ADENOSINE]
- half-life [10]: 0.417 min

Compound: Cc1cn([C@H]2C[C@H](N=[N+]=[N-])[C@@H](CO)O2)c(=O)[nH]c1=O [ZIDOVUDINE]
- pEC50 [5]: 8.30
- pEC50 [6]: 8.40
- pIC50 [4, 12]: < 4.00
